Results as given in article PMC6063804 (EJNMMI Research, 2018).
“And” between values parts separate entries of the source, which are not always exact repeats. Equal values may be shown once. Read-outs that look alike come from different tables or passages of the source.

What was measured:
[1] = ex vivo rodent, cited from earlier work
[2] = test system: ion channel binding site of NMDA receptors; test: [^18F]PK-209 brain PET, test–retest and kinetic modeling; format: in vivo, human; settings: for K i: net influx rate, individual subjects S1–S5
Protocol: In total, 20 PET scans were acquired on a Gemini TF-64 PET/CT scanner (Philips Medical Systems, Cleveland, OH, USA). Five subjects underwent [^18F]PK-209 test–retest (TRT) scans 31–61 days apart over a period of 211 days. Another five subjects underwent baseline and ketamine scans 13–161 days apart over a period of 258 days. At the start of each scan [^18F]PK-209 was injected as an intravenous bolus with a mean injected activity of 187 ± 7 MBq. All scans were performed between 12:00 and 15:00 h to minimize diurnal variation. Duration of daylight on each scan day was calculated to investigate seasonal changes in tracer binding. Dynamic PET data were acquired for 120 min and binned into 25 time frames (1 × 15, 3 × 5, 3 × 10, 4 × 60, 2 × 150, 2 × 300, 10 × 600 s). PET was followed by a low-dose CT (30 mAs, 120 kVp) for attenuation correction and localization. Data were reconstructed using a three-dimensional row action maximum likelihood reconstruction algorithm (3-D RAMLA). Acquired PET data were normalized and corrected for dead time, randoms, scatter, attenuation, and decay.
Prior to the PET studies, structural three-dimensional coronal T1-weighted magnetic resonance images (MRI) were acquired for all subjects on a 1.5T Sonata scanner (Siemens Medical Solutions, Erlangen, Germany) with 160 coronal slices using echo time 3.97 ms, repetition time 2700 ms, flip angle 8°, and voxel size 1.0 × 1.5 × 1.0 mm^3. Subject motion was checked by visual inspection of the alignment of intrasubject PET frames, and no frames were excluded due to excessive movement. T1-weighted MRI scans were co-registered to an average of the PET frames from ~ 4–70 min p.i. using VINCI software. The co-registered MRI scans were segmented into gray matter (GM), white matter, and extra-cerebral fluid, using PVE-lab. Subsequently, 68 regions of interest (ROIs), including whole brain, were derived from the Hammers atlas and used to extract GM time-activity curves (TACs). As a last step, the TACs of 60 out of the 67 ROIs were redefined into nine volume-weighted ROIs by combining the radioactivity at each timepoint according to the equation Bq¯=∑iαi×Bqi/∑iαi , where αi is the volume (in mm^3) of region i, and Bqi the counts per mm^3 of region i. The selection of ROIs was based on the widespread NMDA-R availability in the brain: frontal, temporal, occipital, and parietal cortices; hippocampus; thalamus; insula; brainstem; dorsal striatum; and cerebellum, as well as whole brain GM from the Hammers atlas. Standardized uptake values (SUV; equalling measured activity divided by injected dose per body weight) were calculated for whole brain GM.
Using the metabolite-corrected arterial plasma input function, all GM TACs were fitted to single-tissue (1T2k), two-tissue irreversible (2T3k), and reversible (2T4k) compartmental models, both with and without an additional parameter for fractional blood volume (VB). The non-metabolite-corrected arterial whole blood curve was used as input function for VB. The optimal tracer kinetic model for describing in vivo kinetics of [^18F]PK-209 was determined according to the Akaike Information Criterion (AIC). Depending on the model preference, outcome measures were the net influx constant (Ki = K1 k3/(k2 + k3)) or the distribution volume (VT=K1/k2(1+k3/k4)) . For subsequent group level analysis (e.g., TRT variability and ketamine effects), all scans were analyzed using the same, most preferred, tracer kinetic model. Non-displaceable distribution volumes (VND = K1/k2) as well as K1 and k3 values are also reported separately.
The absolute percentage TRT variability of kinetic parameters between test and retest scans was calculated using the equation TRT variability = 2 · (ρretest − ρtest)/(ρtest + ρretest) · 100, where ρ is the kinetic parameter of interest. The between-subject coefficient of variation was calculated as the standard deviation divided by the sample mean · 100. […]

[3] = biological target: ion channel of NMDA-R; design: method as in PMID 25648682; settings: preclinical; read-out: apparent affinity against [^3H]MK-801 (Ki); cited from earlier work

CSc1ccc(Cl)c(NC(=N)N(C)c2cccc(OC[18F])c2)c1 [[^18F]PK-209, 3-(2-chloro-5-(methylthio)phenyl)-1-(3-([^18F]fluoromethoxy)phenyl)-1-methylguanidine]
non-polar metabolite fraction in brain ([1]; 15 min p.i.): 18% | non-polar metabolite fraction in brain ([1]; 60 min p.i.): 25% | polar metabolites, contribution to total brain radioactivity ([1]; 60 min p.i.): 4% | Mean test K i ([2]; 2T3k_VB, population IF): 0.0152 min⁻¹ | Mean retest K i ([2]; 2T3k_VB, single scan IF): 0.0143 min⁻¹ | Mean test K i ([2]; 2T3k_VB, single scan IF): 0.0183 min⁻¹ | Mean retest K 1 ([2]; human, in vivo): 0.426 mL · cm^3 · min^−1 | Mean retest V ND ([2]; human, in vivo): 7.34 | Mean retest k 3 ([2]; human, in vivo): 0.0021 min⁻¹ | Mean test K 1 ([2]; human, in vivo): 0.473 mL · cm^3 · min^−1 | Mean test K i ([2]; human, in vivo): 0.0161 min⁻¹ | Mean test V ND ([2]; human, in vivo): 9.09 | Mean test k 3 ([2]; human, in vivo): 0.0021 min⁻¹ | peak uptake SUV ([2]; human, in vivo): 3.6-5.7 | time of peak uptake ([2]; human, in vivo): around 10 min | whole brain SUV90–120 ([2]; human, in vivo): 1.64 | brain activity as % of the peak ([2]; human, in vivo, 120 min): 25-40% | defluorination (radioactivity uptake in jaw and skull) ([2]; in vivo): no defluorination | K i ([2]; 2T3k_VB, population IF, retest scan): 0.0201 min⁻¹ | K i ([2]; 2T3k_VB, population IF, test scan): 0.0147 min⁻¹ and 0.0193 min⁻¹ | K i ([2]; 2T3k_VB, single scan IF, retest scan): 0.0182 min⁻¹ and 0.0152 min⁻¹ | K i ([2]; 2T3k_VB, within-subject IF, retest scan): 0.0162 min⁻¹ | K i ([2]; 2T3k_VB, within-subject IF, test scan): 0.0118 min⁻¹ | whole brain SUV90–120 ([2]; test scans, average): 1.68 | K i [3]: 18 nM
